The source of these data is US20250263753A1, “BRIDGED CYCLE-BASED INHIBITORS OF DNA-DEPENDENT PROTEIN KINASE AND COMPOSITIONS AND APPLICATION IN GENE EDITING” (Juno Therapeutics, Inc., priority 2023, published 2025).

Like-named read-outs stand apart in the source and are kept apart here.

As usually defined, the IC50 is the point on the concentration scale where inhibition reaches its midpoint.

Assay [1] has as its target ATM (Homo sapiens (Human), UniProt Q13315). The experiment in a line: ATM biochemical assay (Reaction Biology HTRF kinase assay, 10 μM ATP). In a few lines:
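HTRF kinase assay with N-terminal GST-tagged human p53 (aa2-393) substrate, 10 μM ATP, in 50 mM Hepes pH 7.5, 10 mM MnCl2, 1% DMSO. Enzyme preincubated with compound 30 min, reaction 2 h at room temperature. pS15 phosphorylation read by Eu-cryptate anti-p53-pS15/anti-GST-d2 HTRF (615/665 nm).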
(Time-resolved FRET reads energy transfer from a long-lived donor to a nearby acceptor.)

Assay [2] deals with PI3Kδ (His-PIK3CD/PIK3R1, p110 delta/p85 alpha) (Homo sapiens (Human), UniProt O00329). The experiment in a line: PI3Kδ biochemical assay (HTRF/FRET probe). Format: binding. The following applies: class symbol. As to the method:
Phosphoinositide 3-kinase (PI3K) Biochemical Assay: A solution was prepared containing 0.2 nM Anti-HIS-Terbium (Cisbio, 64CUSTAZU), 40 nM designed-probe and 1.0 nM His-PIK3CD/PIK3R1 (p110 delta/p85 alpha) in FRET Buffer (20 mM HEPES, 10 mM MgCl2, 0.015% Brij-35, 4 mM DTT, 0.05 mg/mL BSA).

Assay [3] concerns the target DNA-PK (Homo sapiens (Human), UniProt P78527). The experiment in a line: DNA-PK biochemical assay (Reaction Biology HotSpot kinase assay, 10 μM ATP). In a few lines: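 Radiometric 33P-ATP kinase reaction in 20 mM Hepes pH 7.5, 10 mM MgCl2, 1 mM EGTA, 2 mM DTT, 1% DMSO. Compound preincubated with kinase and substrate 20 min at room temperature, then reaction run 2 h at room temperature after ATP addition. Activity read by P81 filter binding.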

The target of assay [4] is PI3Kα (His-PIK3CA/PIK3R1, p110 alpha/p85 alpha) (Homo sapiens (Human), UniProt P42336). The experiment in a line: PI3Kα biochemical assay (HTRF/FRET probe). Format: binding. As to conditions: class symbol. The protocol:
Phosphoinositide 3-kinase α (PI3Kα) Biochemical Assay: A solution was prepared containing 0.2 nM Anti-HIS-Terbium (Cisbio, 64CUSTAZU), 3.7 nM designed-probe and 1.0 nM His-PIK3CA/PIK3R1 (p110 alpha/p85 alpha) in FRET Buffer (20 mM HEPES, 10 mM MgCl2, 0.015% Brij-35, 4 mM DTT, 0.05 mg/mL BSA).

Where [5] appears, read: read-out: DNA-PK HotSpot 10 μM ATP IC50, class symbol.
Setting [6] is: read-out: ATM HTRF 10 μM ATP IC50, class symbol.

Chain of PI3Kδ (His-PIK3CD/PIK3R1, p110 delta/p85 alpha) (O00329 whole entry, species assumed): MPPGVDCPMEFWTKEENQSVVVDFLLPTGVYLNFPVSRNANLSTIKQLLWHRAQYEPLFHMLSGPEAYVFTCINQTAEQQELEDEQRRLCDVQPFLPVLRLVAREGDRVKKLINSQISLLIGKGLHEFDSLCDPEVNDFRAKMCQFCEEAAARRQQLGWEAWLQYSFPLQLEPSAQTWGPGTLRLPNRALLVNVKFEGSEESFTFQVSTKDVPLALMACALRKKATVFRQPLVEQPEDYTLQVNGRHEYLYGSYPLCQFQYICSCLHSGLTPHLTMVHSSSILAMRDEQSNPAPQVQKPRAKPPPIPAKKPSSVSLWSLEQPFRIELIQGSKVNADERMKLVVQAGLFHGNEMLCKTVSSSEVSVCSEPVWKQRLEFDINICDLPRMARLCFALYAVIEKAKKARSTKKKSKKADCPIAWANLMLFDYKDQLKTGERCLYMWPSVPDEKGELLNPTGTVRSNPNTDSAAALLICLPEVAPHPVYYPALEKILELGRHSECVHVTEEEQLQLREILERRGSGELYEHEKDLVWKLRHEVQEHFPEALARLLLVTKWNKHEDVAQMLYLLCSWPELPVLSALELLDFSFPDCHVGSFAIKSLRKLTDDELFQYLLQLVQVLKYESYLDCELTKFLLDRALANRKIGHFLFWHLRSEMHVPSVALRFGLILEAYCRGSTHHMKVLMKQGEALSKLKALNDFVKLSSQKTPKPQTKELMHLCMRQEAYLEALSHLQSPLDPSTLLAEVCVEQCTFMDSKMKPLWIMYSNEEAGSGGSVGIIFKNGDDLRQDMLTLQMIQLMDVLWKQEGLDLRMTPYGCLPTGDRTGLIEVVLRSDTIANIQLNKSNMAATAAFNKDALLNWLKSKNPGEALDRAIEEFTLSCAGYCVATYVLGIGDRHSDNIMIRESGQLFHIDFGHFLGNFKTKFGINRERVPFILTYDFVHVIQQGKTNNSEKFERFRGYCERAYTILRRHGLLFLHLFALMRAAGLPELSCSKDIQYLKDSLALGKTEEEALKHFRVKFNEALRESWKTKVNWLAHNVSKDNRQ
Chain of PI3Kδ (His-PIK3CD/PIK3R1, p110 delta/p85 alpha) (P27986 whole entry partner, species assumed): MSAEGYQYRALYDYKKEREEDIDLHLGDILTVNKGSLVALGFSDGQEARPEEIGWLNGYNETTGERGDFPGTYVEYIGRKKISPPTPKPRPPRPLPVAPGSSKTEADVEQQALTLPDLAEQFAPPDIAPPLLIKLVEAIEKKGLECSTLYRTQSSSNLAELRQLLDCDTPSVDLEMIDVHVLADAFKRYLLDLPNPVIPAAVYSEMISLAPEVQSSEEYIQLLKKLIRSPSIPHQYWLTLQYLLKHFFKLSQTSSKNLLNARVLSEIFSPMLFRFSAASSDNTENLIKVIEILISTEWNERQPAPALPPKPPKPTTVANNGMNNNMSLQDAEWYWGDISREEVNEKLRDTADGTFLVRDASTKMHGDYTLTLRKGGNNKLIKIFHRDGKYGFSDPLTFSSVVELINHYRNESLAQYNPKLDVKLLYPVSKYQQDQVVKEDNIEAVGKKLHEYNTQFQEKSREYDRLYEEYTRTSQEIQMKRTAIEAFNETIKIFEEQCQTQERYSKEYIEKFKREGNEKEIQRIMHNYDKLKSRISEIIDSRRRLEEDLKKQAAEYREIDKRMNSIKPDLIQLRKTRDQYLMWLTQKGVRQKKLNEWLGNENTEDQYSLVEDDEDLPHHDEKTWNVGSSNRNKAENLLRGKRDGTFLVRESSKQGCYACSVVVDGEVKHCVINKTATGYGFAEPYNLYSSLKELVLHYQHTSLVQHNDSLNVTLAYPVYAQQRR
Chain of PI3Kα (His-PIK3CA/PIK3R1, p110 alpha/p85 alpha) (P42336 whole entry, species assumed): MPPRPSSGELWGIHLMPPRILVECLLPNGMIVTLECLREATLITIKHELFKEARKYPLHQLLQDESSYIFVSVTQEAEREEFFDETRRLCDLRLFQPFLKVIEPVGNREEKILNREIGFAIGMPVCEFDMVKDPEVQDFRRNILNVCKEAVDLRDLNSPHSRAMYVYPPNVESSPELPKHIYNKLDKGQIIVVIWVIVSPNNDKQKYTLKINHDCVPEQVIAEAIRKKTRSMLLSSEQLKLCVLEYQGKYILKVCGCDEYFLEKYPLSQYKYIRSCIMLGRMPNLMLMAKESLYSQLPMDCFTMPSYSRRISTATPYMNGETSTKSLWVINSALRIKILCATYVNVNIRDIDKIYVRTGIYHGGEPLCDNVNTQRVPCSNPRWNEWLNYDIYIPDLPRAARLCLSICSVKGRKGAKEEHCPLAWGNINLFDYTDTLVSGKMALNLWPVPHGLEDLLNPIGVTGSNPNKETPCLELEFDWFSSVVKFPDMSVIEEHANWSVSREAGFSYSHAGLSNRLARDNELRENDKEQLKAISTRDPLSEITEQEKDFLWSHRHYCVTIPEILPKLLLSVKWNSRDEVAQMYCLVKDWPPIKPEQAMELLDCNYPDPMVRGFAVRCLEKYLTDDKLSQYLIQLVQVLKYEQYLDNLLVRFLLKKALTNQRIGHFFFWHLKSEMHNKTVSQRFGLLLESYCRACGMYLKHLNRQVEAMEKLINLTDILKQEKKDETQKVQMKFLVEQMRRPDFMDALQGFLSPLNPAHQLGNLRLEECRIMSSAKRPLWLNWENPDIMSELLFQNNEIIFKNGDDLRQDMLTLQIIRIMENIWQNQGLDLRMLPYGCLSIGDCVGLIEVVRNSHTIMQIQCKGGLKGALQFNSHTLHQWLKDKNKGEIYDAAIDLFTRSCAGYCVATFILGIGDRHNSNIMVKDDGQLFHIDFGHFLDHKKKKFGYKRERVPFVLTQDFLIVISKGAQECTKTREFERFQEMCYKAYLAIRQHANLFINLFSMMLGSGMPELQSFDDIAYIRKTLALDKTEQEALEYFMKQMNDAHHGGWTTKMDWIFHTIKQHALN
Chain of PI3Kα (His-PIK3CA/PIK3R1, p110 alpha/p85 alpha) (P27986 whole entry partner, species assumed): as the sequence (P27986 whole entry partner, species assumed) above

Consider `Cc1cc2c(cc1Nc1ncc3c(n1)n(C14CCC(O)(CC1)C4)c(=O)n3C)OCCO2` [Compound 5, 9-(4-hydroxybicyclo[2.2.1]heptan-1-yl)-7-methyl-2-((7-methyl-2,3-dihydrobenzo[b][1,4]dioxin-6-yl)amino)-7,9-dihydro-8H-purin-8-one], for which the half-inhibitory concentration (IC50) in assay [1] (class symbol) is 10 to 100 nM; in assay [2] it was at least 1000 nM; in assay [3] (setting [5]) it was under 1 nM; in assay [4], 100 to 1000 nM.
Turning to `Cc1cc2ncnn2cc1Nc1ncc2c(n1)N(C13CC(F)(C1)C3)CC(=O)N2C` [Compound 54, 8-{3-Fluorobicyclo[1.1.1]pentan-1-yl}-5-methyl-2-({7-methyl-[1,2,4]triazolo[1,5-a]pyridin-6-yl}amino)-5,6,7,8-tetrahydropteridin-6-one], the IC50 in assay [1] (setting [6]) is at least 1000 nM; in assay [2] it was at least 1000 nM; in assay [3] (class symbol), 1 to 10 nM; in assay [4], at least 1000 nM.
Turning to `COC12CCC(n3c(=O)n(C)c4cnc(Nc5cn6ncnc6cc5C)nc43)(CC1)CC2` [Compound 25, 9-(4-methoxybicyclo[2.2.2]octan-1-yl)-7-methyl-2-((7-methyl-[1,2,4]triazolo[1,5-a]pyridin-6-yl)amino)-7,9-dihydro-8H-purin-8-one], the IC50 in assay [1] (class symbol) was 1 to 10 nM; in assay [2], 100 to 1000 nM; in assay [3] (setting [5]) it was under 1 nM; in assay [4], 100 to 1000 nM.
In the case of `COC12CCC(N3CC(=O)N(C)c4cnc(Nc5cn6ncnc6cc5C)nc43)(CC1)C2` [Compound 62, 8-(4-methoxybicyclo[2.2.1]heptan-1-yl)-5-methyl-2-((7-methyl-[1,2,4]triazolo[1,5-a]pyridin-6-yl)amino)-7,8-dihydropteridin-6(5H)-one], the IC50 in assay [1] (class symbol) was 10 to 100 nM; in assay [2], at least 1000 nM; in assay [3] (setting [5]) it was under 1 nM; in assay [4] it was at least 1000 nM.
In the case of `COC12CCC(n3c(=O)n(C)c4cnc(Nc5cc6nsnc6cc5C)nc43)(CC1)C2` [Compound 8, 9-(4-methoxybicyclo[2.2.1]heptan-1-yl)-7-methyl-2-((6-methylbenzo[c][1,2,5]thiadiazol-5-yl)amino)-7,9-dihydro-8H-purin-8-one], the IC50 in assay [1] (class symbol) is 10 to 100 nM; in assay [2], 100 to 1000 nM; in assay [3] (setting [5]), under 1 nM; in assay [4], 10 to 100 nM.
In the case of `Cc1cc2nsnc2cc1Nc1ncc2c(n1)N(C13CCC(O)(CC1)C3)CC(=O)N2C` [Compound 55, 8-{4-Hydroxybicyclo[2.2.1]heptan-1-yl}-5-methyl-2-[(6-methyl-2,1,3-benzothiadiazol-5-yl)amino]-5,6,7,8-tetrahydropteridin-6-one], the half-inhibitory concentration (IC50) in assay [1] (class symbol) is 1 to 10 nM; in assay [2], 100 to 1000 nM; in assay [3] (setting [5]), under 1 nM; in assay [4] it was 10 to 100 nM.
On to `Cc1cc2ncnn2cc1Nc1ncc2c(n1)n(C13CCC(O)(CC1)C3)c(=S)n2C` [Compound 31, 9-(4-hydroxybicyclo[2.2.1]heptan-1-yl)-7-methyl-2-((7-methyl-[1,2,4]triazolo[1,5-a]pyridin-6-yl)amino)-7,9-dihydro-8H-purine-8-thione], for which the IC50 in assay [1] (class symbol) is 100 to 1000 nM; in assay [2], 10 to 100 nM; in assay [3] (class symbol), 1 to 10 nM; in assay [4] it was 100 to 1000 nM.
For `Cc1cc2c(cc1Nc1ncc3c(n1)n(C14CC(F)(C1)C4)c(=S)n3C)OCO2` [Compound 35, 9-(3-fluorobicyclo[1.1.1]pentan-1-yl)-7-methyl-2-((6-methylbenzo[d][1,3]dioxol-5-yl)amino)-7,9-dihydro-8H-purine-8-thione], the half-inhibitory concentration (IC50) was at least 1000 nM in assay [1] (setting [6]), at least 1000 nM in assay [2], 100 to 1000 nM in assay [3] (class symbol) and at least 1000 nM in assay [4].
Consider `COCC12CC(n3c(=O)n(C)c4cnc(Nc5cc6c(cc5C)OCO6)nc43)(C1)C2` [Compound 21, 9-(3-(methoxymethyl)bicyclo[1.1.1]pentan-1-yl)-7-methyl-2-((6-methylbenzo[d][1,3]dioxol-5-yl)amino)-7,9-dihydro-8H-purin-8-one], for which the IC50 in assay [1] (class symbol) is 10 to 100 nM; in assay [2] it was at least 1000 nM; in assay [3] (class symbol), 1 to 10 nM; in assay [4], at least 1000 nM.
As to `COC12CCC(n3c(=O)n(C)c4cnc(Nc5cc6c(cc5C)OCO6)nc43)(CC1)CC2` [Compound 26, 9-(4-methoxybicyclo[2.2.2]octan-1-yl)-7-methyl-2-((6-methylbenzo[d][1,3]dioxol-5-yl)amino)-7,9-dihydro-8H-purin-8-one], the IC50 in assay [1] (class symbol) is 10 to 100 nM; in assay [2], at least 1000 nM; in assay [3] (setting [5]), under 1 nM; in assay [4] it was 100 to 1000 nM.
Consider `Cc1cc2c(cc1Nc1ncc3c(n1)N(C14CC(F)(C1)C4)C(=O)C31CC1)OCO2` [Compound 76, 7′-(3-fluorobicyclo[1.1.1]pentan-1-yl)-2′-((6-methylbenzo[d][1,3]dioxol-5-yl)amino)spiro[cyclopropane-1,5′-pyrrolo[2,3-d]pyrimidin]-6′(7′H)-one], for which the IC50 is at least 1000 nM in assay [1] (setting [6]), at least 1000 nM in assay [2], 1 to 10 nM in assay [3] (class symbol) and at least 1000 nM in assay [4].
For `Cc1cc(-c2cnco2)ncc1Nc1ncc2c(n1)N(C13CC(F)(C1)C3)C(=O)C21CC1` [Compound 74, 7′-(3-fluorobicyclo[1.1.1]pentan-1-yl)-2′-((4-methyl-6-(oxazol-5-yl)pyridin-3-yl)amino)spiro[cyclopropane-1,5′-pyrrolo[2,3-d]pyrimidin]-6′(7′H)-one], the IC50 was 10 to 100 nM in assay [1] (class symbol), at least 1000 nM in assay [2], 1 to 10 nM in assay [3] (class symbol) and 100 to 1000 nM in assay [4].
With `Cc1cc2c(cc1Nc1ncc3c(n1)N(C14CCC(O)(CC1)C4)CC(=O)N3C)OCO2` [Compound 52, 8-{4-Hydroxybicyclo[2.2.1]heptan-1-yl}-5-methyl-2-[(6-methyl-2H-1,3-benzodioxol-5-yl)amino]-5,6,7,8-tetrahydropteridin-6-one], the IC50 in assay [1] (setting [6]) was at least 1000 nM; in assay [2], at least 1000 nM; in assay [3] (class symbol) it was 10 to 100 nM; in assay [4] it was at least 1000 nM.
With `Cc1cc2ncnn2cc1Nc1ncc2c(n1)n(C13CC(C(F)(F)F)(C1)C3)c(=O)n2C` [Compound 18, 7-methyl-2-((7-methyl-[1,2,4]triazolo[1,5-a]pyridin-6-yl)amino)-9-(3-(trifluoromethyl)bicyclo[1.1.1]pentan-1-yl)-7,9-dihydro-8H-purin-8-one], the IC50 is 1 to 10 nM in assay [1] (class symbol), at least 1000 nM in assay [2], 1 to 10 nM in assay [3] (class symbol) and at least 1000 nM in assay [4].
Consider `Cc1cc(-c2cnn(C)c2)c(F)cc1Nc1ncc2c(n1)n(C13CCC(O)(CC1)C3)c(=O)n2C` [Compound 37, 2-((5-fluoro-2-methyl-4-(1-methyl-1H-pyrazol-4-yl)phenyl)amino)-9-(4-hydroxybicyclo[2.2.1]heptan-1-yl)-7-methyl-7,9-dihydro-8H-purin-8-one], for which the IC50 is 1 to 10 nM in assay [1] (class symbol), at least 1000 nM in assay [2], under 1 nM in assay [3] (setting [5]) and 100 to 1000 nM in assay [4].
Regarding `Cc1cc2nccnc2cc1Nc1ncc2c(n1)N(C13CCC(O)(CC1)C3)C(=O)C21CC1` [Compound 67, 7′-(4-hydroxybicyclo[2.2.1]heptan-1-yl)-2′-((7-methylquinoxalin-6-yl)amino)spiro[cyclopropane-1,5′-pyrrolo[2,3-d]pyrimidin]-6′(7′H)-one], the IC50 in assay [1] (class symbol) is 100 to 1000 nM; in assay [2] it was 100 to 1000 nM; in assay [3] (setting [5]), under 1 nM; in assay [4], 10 to 100 nM.
